From patent publication US7939552B2, “Benzyloxypropylamine derivative” (Nippon Zoki Pharmaceutical Co., Ltd., priority 2005, dated 2011)
Where a name gives a salt, the structure may show the parent alone.

Target: T1, human NK1 receptor (Homo sapiens, UniProt P25103)
T1 construct: expressed in transfected cells; host or cells: CHO cells (hNK1-CHO)
Assay: Human NK1 receptor binding assay (3H-Sar9-SP, hNK1-CHO cells)
Settings: room temperature 60 minutes
Experimental: A supernatant liquid was removed from an hNK1-CHO cell incubation flask in a confluent state, trypsin (0.25%)-EDTA (1 mmol/L) (Gibco) was added thereto and the cells were exfoliated and recovered. After they were washed with a buffer A (pH 7.5; 50 mmol/L Tris hydrochloride 50 mmol/L, 150 mmol/L NaCl and 0.02% BSA) for one time (at […] for 5 minutes), cell numbers were adjusted and re-floated on a buffer for assay {a buffer A to which 40 μg/mL bacitracin (Sigma), 4 μg/mL leupeptin (Sigma), 4 μg/mL chymostatin (Sigma) and 4 μg/mL phosphoramidon (Sigma) were added}. The hNK1-CHO cells (100 μL) were placed in a tube (TPX-12, Maruemu) in which 300 μL of the buffer for assay was charged so as to make cells 10^5 per tube, 50 μL of a hot solution (^3H-Sar^9-SP, final concentration: […]) and 50 μL of a substance to be tested were added (a system of 500 μL), stirred and made to react at room temperature for 60 minutes. After completion of the reaction, it was filtered through a GF/B filter (25 mm diameter, Whatman) which was previously dipped in 0.1% polyethyleneimine p-70 (Wako Pure Chemical), washed with the buffer A (4 mL each for three times), placed in a vial and dried at 60° C. for one night. After drying, 10 mL of a scintillator (AL-1, toluene base, Dojindo) was added thereto and dpm was measured by a liquid scintillation counter (for 5 minutes/vial).
With regard to a nonspecific binding, it was defined as the dpm when 10 μmol/L of the substance P was added instead of the substance to be tested. The experiment was conducted in duplicate and at least three experiments were repeated. IC50 value was calculated using a probit method (statistic library II, Yukms).

T1 sequence (P25103 whole entry): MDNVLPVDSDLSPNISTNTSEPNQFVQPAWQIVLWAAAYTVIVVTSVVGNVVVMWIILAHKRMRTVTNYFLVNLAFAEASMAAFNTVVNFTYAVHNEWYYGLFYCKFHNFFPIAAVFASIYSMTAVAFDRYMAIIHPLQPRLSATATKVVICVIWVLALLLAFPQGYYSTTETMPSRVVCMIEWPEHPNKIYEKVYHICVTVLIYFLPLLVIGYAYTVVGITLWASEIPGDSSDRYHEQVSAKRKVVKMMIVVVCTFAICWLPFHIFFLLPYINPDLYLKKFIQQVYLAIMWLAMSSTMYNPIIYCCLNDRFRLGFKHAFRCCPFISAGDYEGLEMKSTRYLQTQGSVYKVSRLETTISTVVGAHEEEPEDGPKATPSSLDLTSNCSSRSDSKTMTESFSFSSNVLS

O=C(NCC(COCc1cc(C(F)(F)F)cc(C(F)(F)F)c1)c1ccc(F)cc1)c1cc[n+]([O-])cc1 (single isomer, unassigned; (-)) [(−)-Compound 21]
IC50: 1.5 nM

O=C(NCC(COCc1cc(C(F)(F)F)cc(C(F)(F)F)c1)c1ccccc1)NC1CCNCC1 (stereo not drawn) [Compound 86, 1-[3-(3,5-Bis(trifluoromethyl)benzyloxy)-2-phenylpropyl]-3-piperidin-4-ylurea hydrochloride]
IC50: 6 nM

O=C(Cc1ccc[n+]([O-])c1)NCC(COCc1cc(C(F)(F)F)cc(C(F)(F)F)c1)c1ccccc1 (stereo not drawn) [Compound 41, N-[3-(3,5-Bis(trifluoromethyl)benzyloxy)-2-phenylpropyl]-2-(1-oxypyridin-3-yl)acetamide]
IC50: 9.2 nM

NC1CCC(C(=O)NCC(COCc2cc(C(F)(F)F)cc(C(F)(F)F)c2)c2ccccc2)CC1 (stereo not drawn) [Compound 88, 4-Aminocyclohexanecarboxylic acid [3-(3,5-bis(trifluoromethyl)benzyloxy)-2-phenylpropyl]amide hydrochloride]
IC50: 8.6 nM

CN(CC(COCc1cc(C(F)(F)F)cc(C(F)(F)F)c1)c1ccc(F)cc1)C(=O)c1ccnc(O)c1 (stereo not drawn) [Compound 100, N-[3-(3,5-Bis(trifluoromethyl)benzyloxy)-2-(4-fluorophenyl)propyl]-2-hydroxy-N-methylisonicotinamide]
IC50: 11.9 nM

O=C(NCC(COCc1cc(C(F)(F)F)cc(C(F)(F)F)c1)c1ccc(F)cc1)c1cc[n+]([O-])cc1 (single isomer, unassigned; (+)) [(+)-Compound 21]
IC50: 9 nM

CN(CC(COCc1cc(C(F)(F)F)cc(C(F)(F)F)c1)c1ccc(F)cc1)C(=O)c1ccncc1 (stereo not drawn) [Compound 98, N-[3-(3,5-Bis(trifluoromethyl)benzyloxy)-2-(4-fluorophenyl)propyl]-N-methylisonicotinamide]
IC50: 27 nM

CN(CC(COCc1cc(C(F)(F)F)cc(C(F)(F)F)c1)c1ccccc1)C(=O)C1CCNCC1 (stereo not drawn) [Compound 93, N-[3-(3,5-Bis(trifluoromethyl)benzyloxy)-2-phenylpropyl]-N-methylpiperidine-4-carboxamide hydrochloride]
IC50: 42.2 nM

O=C(CN1CCC(C(=O)O)CC1)NCC(COCc1cc(C(F)(F)F)cc(C(F)(F)F)c1)c1ccccc1 (stereo not drawn) [Compound 90, 1-{[3-(3,5-Bis(trifluoromethyl)benzyloxy)-2-phenylpropylcarbamoyl]methyl}piperidine-4-carboxylic acid]
IC50: 44 nM

CN(CC(COCc1cc(C(F)(F)F)cc(C(F)(F)F)c1)c1ccccc1)C(=O)CCN (stereo not drawn) [Compound 102, N-[3-(3,5-Bis(trifluoromethyl)benzyloxy)-2-phenylpropyl]-N-methyl-3-aminopropionamide hydrochloride]
IC50: 35.5 nM

N-[3-(3,5-Bis(trifluoromethyl)benzyloxy)-2-(4-fluorophenyl)propyl]-N-methylpiperidine-4-carboxamide hydrochloride [Compound 97]
IC50: 20.3 nM

CN(CC(COCc1cc(C(F)(F)F)cc(C(F)(F)F)c1)c1ccc(F)cc1)C(=O)C1CCNCC1 (stereo not drawn) [Compound 95, N-[3-(3,5-Bis(trifluoromethyl)benzyloxy)-2-(4-fluorophenyl)propyl]-N-methylpiperidine-4-carboxamide hydrochloride]
IC50: 15.4 nM

NCCCCC(=O)NCC(COCc1cc(C(F)(F)F)cc(C(F)(F)F)c1)c1ccccc1 (stereo not drawn) [Compound 78, N-[3-(3,5-Bis(trifluoromethyl)benzyloxy)-2-phenylpropyl]-5-aminopentanoicamide hydrochloride]
IC50: 19 nM

CN(CC(COCc1cc(C(F)(F)F)cc(C(F)(F)F)c1)c1ccc(F)cc1)C(=O)CCN (stereo not drawn) [Compound 104, 3-Amino-N-[3-(3,5-bis(trifluoromethyl)benzyloxy)-2-(4-fluorophenyl)propyl]-N-methylpropionamide hydrochloride]
IC50: 6.5 nM

C[n+]1ccc(C(=O)NCC(COCc2cc(C(F)(F)F)cc(C(F)(F)F)c2)c2ccccc2)cc1 (stereo not drawn) [Compound 26, 4-[3-(3,5-Bis(trifluoromethyl)benzyloxy)-2-phenylpropylcarbamoyl]-1-methylpyridinium iodide]
IC50: 5.9 nM
